Data: EP1042468B1
Several values for one entry are separate records, joined by “and”; a condition that tells them apart may be missing. Equal entries are not always repeated. Where two headings read alike, the source gives them in different places. Blank lines part the entries; values can stand above or below the compound they belong to.

Experiments:
[1] = target: T1, human α1H channels expressed in Xenopus oöcytes (Homo sapiens, UniProt O95180); assay type: cell-based; conditions: for IC50: Ba^2+ currents (15 mM Ba^2+)
T1 construct: Construction of a full-length α1H-1-encoding DNA clone; expressed in transfected cells; host or cells: Xenopus laevis oöcytes injected with in vitro transcripts

[2] = target: T2, human α1H containing calcium channels expressed in HEK293 cells (Homo sapiens, UniProt O95180); assay: Whole-cell patch clamp of HEK293 cells transiently expressing the α1H subunit; assay type: cell-based
T2 construct: expressed in transfected cells; host or cells: HEK293 (transient, calcium phosphate; pCMVCD4 co-transfected as marker)

[3] = tested on: human neuronal calcium channel α2 and β1 subunits; assay: Two-electrode voltage clamp of oöcytes injected with α2 and β1 transcripts; conditions: n = 11
[4] = target: human neuronal calcium channel α1D and α2 subunits (Homo sapiens, UniProt Q01668); assay: Two-electrode voltage clamp of oöcytes injected with α1D and α2 transcripts; conditions: holding potential of -90 mV
[5] = tested on: T-type current in neuroblastoma cells; conditions: cited from earlier work
[6] = tested on: T-type current in hippocampal neurons; conditions: 300 µM; cited from earlier work
[7] = Xenopus oöcytes, concentration-inhibition curve of Ba^2+ currents

T1 sequence (O95180 whole entry): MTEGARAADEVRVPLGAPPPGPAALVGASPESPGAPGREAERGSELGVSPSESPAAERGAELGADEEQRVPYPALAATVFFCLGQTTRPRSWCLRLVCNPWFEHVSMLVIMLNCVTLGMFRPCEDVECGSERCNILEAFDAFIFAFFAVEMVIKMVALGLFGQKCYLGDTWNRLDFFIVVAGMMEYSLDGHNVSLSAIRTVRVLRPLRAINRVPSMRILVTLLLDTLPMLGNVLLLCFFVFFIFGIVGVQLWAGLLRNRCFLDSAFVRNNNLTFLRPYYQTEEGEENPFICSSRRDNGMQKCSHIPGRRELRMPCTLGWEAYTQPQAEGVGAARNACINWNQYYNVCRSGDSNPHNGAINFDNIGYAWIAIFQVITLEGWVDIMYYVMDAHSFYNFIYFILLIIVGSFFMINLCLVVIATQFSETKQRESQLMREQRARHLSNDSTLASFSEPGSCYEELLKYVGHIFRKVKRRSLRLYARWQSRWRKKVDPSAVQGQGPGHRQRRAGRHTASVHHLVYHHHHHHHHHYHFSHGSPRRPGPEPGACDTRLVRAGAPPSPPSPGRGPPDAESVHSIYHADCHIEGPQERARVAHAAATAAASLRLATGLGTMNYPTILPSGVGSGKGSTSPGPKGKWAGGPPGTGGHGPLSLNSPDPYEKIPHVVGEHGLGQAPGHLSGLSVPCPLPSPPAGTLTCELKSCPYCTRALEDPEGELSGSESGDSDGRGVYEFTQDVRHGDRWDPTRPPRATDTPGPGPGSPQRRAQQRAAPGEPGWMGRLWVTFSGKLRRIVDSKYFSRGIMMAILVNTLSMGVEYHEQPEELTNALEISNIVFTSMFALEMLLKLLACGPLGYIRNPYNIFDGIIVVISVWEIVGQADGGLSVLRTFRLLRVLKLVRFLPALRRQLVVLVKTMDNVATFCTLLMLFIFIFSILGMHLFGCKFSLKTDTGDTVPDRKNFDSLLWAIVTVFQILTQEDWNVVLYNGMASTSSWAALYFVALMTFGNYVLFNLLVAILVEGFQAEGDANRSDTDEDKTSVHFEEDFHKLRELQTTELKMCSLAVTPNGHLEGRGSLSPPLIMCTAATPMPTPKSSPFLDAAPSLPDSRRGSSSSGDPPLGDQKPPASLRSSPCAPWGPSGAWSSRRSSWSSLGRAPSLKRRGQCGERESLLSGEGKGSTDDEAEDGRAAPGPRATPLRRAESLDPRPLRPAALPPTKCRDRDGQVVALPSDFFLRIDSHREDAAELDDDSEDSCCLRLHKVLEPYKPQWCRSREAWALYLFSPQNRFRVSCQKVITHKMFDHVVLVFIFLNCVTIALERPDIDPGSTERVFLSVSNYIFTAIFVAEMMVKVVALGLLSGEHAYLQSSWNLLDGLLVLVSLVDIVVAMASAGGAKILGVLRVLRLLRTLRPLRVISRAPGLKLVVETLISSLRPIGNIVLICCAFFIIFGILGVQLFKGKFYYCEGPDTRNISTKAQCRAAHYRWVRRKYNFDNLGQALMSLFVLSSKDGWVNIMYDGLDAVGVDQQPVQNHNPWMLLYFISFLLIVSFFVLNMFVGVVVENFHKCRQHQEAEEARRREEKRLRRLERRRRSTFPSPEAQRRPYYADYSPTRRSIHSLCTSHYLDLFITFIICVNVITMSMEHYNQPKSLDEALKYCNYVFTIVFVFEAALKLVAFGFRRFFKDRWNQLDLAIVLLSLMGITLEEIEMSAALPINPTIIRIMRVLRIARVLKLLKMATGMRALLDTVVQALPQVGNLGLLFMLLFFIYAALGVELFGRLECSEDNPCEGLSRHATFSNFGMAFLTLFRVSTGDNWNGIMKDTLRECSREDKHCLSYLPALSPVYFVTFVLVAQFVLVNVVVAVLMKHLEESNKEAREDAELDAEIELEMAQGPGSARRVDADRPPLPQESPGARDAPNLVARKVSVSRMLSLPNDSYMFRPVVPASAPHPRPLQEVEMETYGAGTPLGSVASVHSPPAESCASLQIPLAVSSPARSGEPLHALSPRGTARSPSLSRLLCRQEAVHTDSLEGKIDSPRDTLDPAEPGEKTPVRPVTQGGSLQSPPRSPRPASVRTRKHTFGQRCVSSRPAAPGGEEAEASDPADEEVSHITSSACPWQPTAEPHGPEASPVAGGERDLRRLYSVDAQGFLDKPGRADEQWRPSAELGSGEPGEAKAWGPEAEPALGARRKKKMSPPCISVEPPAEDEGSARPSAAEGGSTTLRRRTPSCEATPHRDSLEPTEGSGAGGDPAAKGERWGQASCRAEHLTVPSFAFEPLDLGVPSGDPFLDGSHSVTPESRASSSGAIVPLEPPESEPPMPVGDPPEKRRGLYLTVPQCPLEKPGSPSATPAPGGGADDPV
T2 sequence (O95180 whole entry): as above
Chain of human neuronal calcium channel α1D and α2 subunits (Q01668 10-2161 limits assumed): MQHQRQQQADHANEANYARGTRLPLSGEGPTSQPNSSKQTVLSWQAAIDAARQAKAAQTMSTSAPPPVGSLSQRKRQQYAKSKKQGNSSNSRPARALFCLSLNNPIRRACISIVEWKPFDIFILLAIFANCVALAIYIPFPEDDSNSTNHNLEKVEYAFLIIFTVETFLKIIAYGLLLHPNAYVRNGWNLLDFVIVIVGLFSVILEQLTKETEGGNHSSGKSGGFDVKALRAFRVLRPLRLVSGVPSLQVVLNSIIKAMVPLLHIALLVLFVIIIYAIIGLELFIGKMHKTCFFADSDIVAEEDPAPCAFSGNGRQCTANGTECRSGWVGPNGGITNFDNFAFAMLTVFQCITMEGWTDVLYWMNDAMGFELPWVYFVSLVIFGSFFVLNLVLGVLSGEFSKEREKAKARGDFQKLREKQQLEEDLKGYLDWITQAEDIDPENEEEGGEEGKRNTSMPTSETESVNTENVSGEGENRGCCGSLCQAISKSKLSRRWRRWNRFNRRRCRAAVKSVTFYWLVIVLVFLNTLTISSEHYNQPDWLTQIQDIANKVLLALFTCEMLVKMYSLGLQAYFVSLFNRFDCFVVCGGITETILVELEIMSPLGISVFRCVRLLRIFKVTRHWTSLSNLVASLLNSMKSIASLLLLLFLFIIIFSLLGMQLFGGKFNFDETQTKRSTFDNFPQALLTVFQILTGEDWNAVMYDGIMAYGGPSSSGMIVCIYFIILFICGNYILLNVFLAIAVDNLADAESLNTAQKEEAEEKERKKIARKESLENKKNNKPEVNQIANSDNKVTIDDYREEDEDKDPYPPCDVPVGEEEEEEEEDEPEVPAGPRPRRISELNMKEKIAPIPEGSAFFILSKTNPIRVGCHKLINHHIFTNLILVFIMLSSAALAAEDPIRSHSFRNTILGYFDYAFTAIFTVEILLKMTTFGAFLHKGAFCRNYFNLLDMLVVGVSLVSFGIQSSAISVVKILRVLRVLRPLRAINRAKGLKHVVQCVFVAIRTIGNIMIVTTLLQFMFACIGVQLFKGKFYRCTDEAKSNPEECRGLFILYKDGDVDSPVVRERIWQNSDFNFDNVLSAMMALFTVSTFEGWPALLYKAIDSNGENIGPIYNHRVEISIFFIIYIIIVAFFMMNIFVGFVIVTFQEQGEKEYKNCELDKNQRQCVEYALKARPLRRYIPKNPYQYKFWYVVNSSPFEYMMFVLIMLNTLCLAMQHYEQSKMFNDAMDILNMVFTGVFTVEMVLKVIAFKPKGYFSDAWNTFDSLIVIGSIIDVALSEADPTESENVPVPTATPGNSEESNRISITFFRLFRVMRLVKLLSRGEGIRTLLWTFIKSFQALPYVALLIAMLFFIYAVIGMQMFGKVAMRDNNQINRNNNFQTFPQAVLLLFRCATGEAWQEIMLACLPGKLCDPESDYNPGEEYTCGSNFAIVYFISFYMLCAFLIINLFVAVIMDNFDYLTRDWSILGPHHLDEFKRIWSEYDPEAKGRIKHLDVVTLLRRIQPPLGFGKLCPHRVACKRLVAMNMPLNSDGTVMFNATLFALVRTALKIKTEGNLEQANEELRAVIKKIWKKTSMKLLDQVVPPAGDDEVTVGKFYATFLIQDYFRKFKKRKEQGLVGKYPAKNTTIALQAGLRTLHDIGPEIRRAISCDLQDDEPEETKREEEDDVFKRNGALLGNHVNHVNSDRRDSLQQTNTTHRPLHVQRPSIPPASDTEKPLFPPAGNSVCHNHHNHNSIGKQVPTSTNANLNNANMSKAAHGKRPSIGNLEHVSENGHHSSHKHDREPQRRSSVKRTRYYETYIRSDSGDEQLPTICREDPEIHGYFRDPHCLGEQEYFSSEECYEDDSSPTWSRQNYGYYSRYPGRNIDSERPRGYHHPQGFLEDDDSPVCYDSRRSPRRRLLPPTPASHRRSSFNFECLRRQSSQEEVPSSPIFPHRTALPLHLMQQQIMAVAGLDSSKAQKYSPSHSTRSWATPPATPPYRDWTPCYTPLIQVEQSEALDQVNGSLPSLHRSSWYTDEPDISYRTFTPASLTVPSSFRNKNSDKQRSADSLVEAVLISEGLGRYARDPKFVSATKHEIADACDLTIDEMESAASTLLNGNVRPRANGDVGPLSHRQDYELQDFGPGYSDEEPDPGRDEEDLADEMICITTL

Structure (SMILES): [Cd+2] [Cd^2+]
IC50 ([1]; Xenopus oöcytes): 8.3 µM and 10.3 µM | IC50 [2]: 104 µM | sensitivity of α1H-1-containing calcium channels lower when expressed in HEK293 cells than when expressed in Xenopus oöcytes [2]: about 10 fold

Structure (SMILES): CCC1(C)CC(=O)NC1=O (centres unmarked) [Ethosuximide, ethosuximide]
inhibition at 300 µM ([2]; HEK293, 300 µM, HEK293 cells, 15 mM Ba^2+, mean ± SD(n), read-out: % Inhibition of Control Response): 7.2 ± 1.8% | effect on α1H-mediated currents (in words) ([2]; no concentration stated): no effect

Structure (SMILES): N=C(N)NC(=O)c1nc(Cl)c(N)nc1N [Amiloride, amiloride]
IC50 [5]: ~50 µM | nH [1]: 0.62 | reduction of the T-type current [6]: 40% | effect on α1H-mediated currents (in words) [2]: inhibited | sensitivity of α1H-1-containing calcium channels lower when expressed in HEK293 cells than when expressed in Xenopus oöcytes [2]: about 10 fold | IC50 ([2]; HEK293 cells, charge carrier 15 mM Ba^2+, sigmoidal curve fitting): 167 µM

Structure (SMILES): [Ni+2] [Ni^2+]
reversibility of antagonism ([1]; Xenopus oöcytes): largely reversible | IC50 ([1]; Xenopus oöcytes): 6.3 µM | nH [1, 7]: 0.84 | IC50 [2]: 6.6 µM | effect on α1H-mediated currents (in words) [2]: inhibited | α1H-mediated currents more sensitive to Ni^2+ than to Cd^2+ [2]: 16 fold

Further lines, with some results ahead:

response of barium currents (in words) [4]: little or no response
Structure (SMILES): COC(=O)C1=C(C)NC(C)=C([N+](=O)[O-])C1c1ccccc1C(F)(F)F (centres unmarked) [Bay K 8644]
sensitivity of inward barium currents (in words) [3]: insensitive

inhibition at 10 µM ([2]; HEK293, 10 µM, HEK293 cells, 15 mM Ba^2+, mean ± SD(n), read-out: % Inhibition of Control Response): 43.7 ± 4.1%
Structure (SMILES): COCCOC(=O)C1=C(C)NC(C)=C(C(=O)OC(C)C)C1c1cccc([N+](=O)[O-])c1 (centres unmarked) [Nimodipine, nimodipine]

nH [1, 7]: 0.71 | inhibition at 1 µM ([2]; 1 µM, HEK293 cells, 15 mM Ba^2+, mean ± SD(n), read-out: % Inhibition of Control Response): 51 ± 10% | effect on α1H-mediated currents (in words) ([2]; no concentration stated): inhibited
Structure (SMILES): COCC(=O)O[C@]1(CCN(C)CCCc2nc3ccccc3[nH]2)CCc2cc(F)ccc2[C@@H]1C(C)C [Mibefradil, (IS,2S)-2-[2-[[3-(1H-benzimidazol-2-yl)propyl]methyl-amino]ethyl]-6-fluoro-1-isopropyl-1,2,3,4-tetrahydronaphthalen-2-yl methoxyacetate]

inhibition at 1 µM ([2]; HEK293, read-out: % Inhibition of Control Response, 1 µM, HEK293 cells, 15 mM Ba^2+, mean ± SD(n)): 0.4 ± 0.8% | effect on α1H channels (in words) ([2]; concentration of 1 µM): little effect | effect on α1H-containing channels (in words) ([2]; concentration of 10 µM): marked inhibition
Structure (SMILES): COC(=O)C1=C(C)NC(C)=C([N+](=O)[O-])[C@H]1c1ccccc1C(F)(F)F [(-)BayK-8644]
